Data on six compounds can be found in ChEMBL document CHEMBL5380848, “Novel Benzo Five-Membered Heterocycle Derivatives as P-Glycoprotein Inhibitors: Design, Synthesis, Molecular Docking, and Anti-Multidrug Resistance Activity” (J Med Chem, 2023).

Each structure is given as a SMILES string. The source made the active and inactive calls. The calls are words filed in the database; no cut-off is given here.

Series [1] has as its target T1, ATP-dependent translocase ABCB1 (Homo sapiens, UniProt P08183). Nature of the series: Inhibition of P-gp-mediated multidrug resistance in doxorubicin-resistant human MCF7/ADR cells assessed as fold reversal of resistance by measuring doxorubicin IC50 incubated for 48 hrs by CCK-8 assay relative to doxorubicin IC50 in absence of compound. The series is classed as cell-based. As to conditions: nci-adr-res. A general note: Formazan colour is commonly taken as a measure of viable cells.

Series [2] relates to MCF7. In words: Cytotoxicity against human MCF7 cells assessed as inhibition rate at 5 uM measured after […] hrs by CCK-8 assay relative to control. It counts as functional.
Series [3] has as its system NCI/ADR-RES. Nature of the series: Cytotoxicity against doxorubicin-resistant human MCF-7/ADR cells assessed as inhibition rate at 5 uM measured after […] hrs by CCK-8 assay relative to control. It counts as functional.
The target of series [4] is T1, ATP-dependent translocase ABCB1. In words: Inhibition of P-glycoprotein mediated Rhodamine-123 efflux in doxorubicin-resistant human MCF-7/ADR cells assessed as fluorescence intensity of rhodamine-123 accumulation incubated for 30 mins by flow cytometry analysis. It counts as cell-based. The settings on record: nci-adr-res, 0.5 h, at 2.5 to 10 µM, dose 2.5-10 µM. For orientation: A flow cytometer gives signals particle by particle.

In series [5] the test system is NCI/ADR-RES. Nature of the series: Effect on P-glycoprotein expression in doxorubicin-resistant human MCF-7/ADR cells at 2.5 to 10 uM incubated for 48 hrs by Western blotting analysis. It counts as functional, cell-based. The settings on record: dose 2.5-10 µM.
Series [6] concerns the target T1, ATP-dependent translocase ABCB1. In words: Binding affinity to P-glycoprotein in doxorubicin-resistant human MCF-7/ADR cells assessed as thermal stability measured 40 to 60 degC at 0.5 to 2.5 uM incubated for 30 mins by CETSA. The series is classed as cell-based. The settings on record: nci-adr-res, 0.5 h, dose 0.5-2.5 µM.
The test system of series [7] is NCI/ADR-RES. In words: Effect on ABCG2 gene expression in doxorubicin-resistant human MCF-7/ADR cells at 5 uM incubated for 12 hrs. The series is classed as functional, cell-based.
Series [8] has as its system NCI/ADR-RES. Nature of the series: Effect on ABCA2 gene expression in doxorubicin-resistant human MCF-7/ADR cells at 5 uM incubated for 12 hrs. The series is classed as functional, cell-based.
Series [9] has as its system NCI/ADR-RES. Nature of the series: Effect on ABCC1 gene expression in doxorubicin-resistant human MCF-7/ADR cells at 5 uM incubated for 12 hrs. The series is classed as functional, cell-based.
Series [10] relates to NCI/ADR-RES. Nature of the series: Effect on ABCB6 gene expression in doxorubicin-resistant human MCF-7/ADR cells at 5 uM incubated for 12 hrs. The series is classed as functional, cell-based.
Series [11] concerns NCI/ADR-RES. Nature of the series: Effect on ABCC4 gene expression in doxorubicin-resistant human MCF-7/ADR cells at 5 uM incubated for 12 hrs. It counts as functional, cell-based.
For series [12], the system named is NCI/ADR-RES. Nature of the series: Effect on ABCF2 gene expression in doxorubicin-resistant human MCF-7/ADR cells at 5 uM incubated for 12 hrs. It counts as functional, cell-based.
In series [13] the test system is NCI/ADR-RES. Nature of the series: Effect on ABCD4 gene expression in doxorubicin-resistant human MCF-7/ADR cells at 5 uM incubated for 12 hrs. The series is classed as functional, cell-based.
Series [14] relates to NCI/ADR-RES. Nature of the series: In vivo resistance reversal activity in doxorubicin-resistant human MCF-7/ADR cells xenografted in BALB/c mouse model assessed as potentiation of doxorubicin antitumor effect by measuring reduction in tumor weight at 10 mg/kg for every 2 days once injected through abdominal cavity for 14 days. The series is classed as functional, organism-based. The settings on record: time 14.0 day.

The subject of series [15] is NCI/ADR-RES. Nature of the series: In vivo resistance reversal activity in doxorubicin-resistant human MCF-7/ADR cells xenografted in BALB/c mouse model assessed as potentiation of doxorubicin antitumor effect by measuring reduction in tumor volume at 10 mg/kg for every 2 days once injected through abdominal cavity for 14 days. The series is classed as functional, organism-based. As to conditions: time 14.0 day.

Series [16] relates to NCI/ADR-RES. In words: In vivo resistance reversal activity in doxorubicin-resistant human MCF-7/ADR cells xenografted in BALB/c mouse model assessed as reduction in tumor weight at 10 mg/kg for every 2 days once injected through abdominal cavity for 14 days. As to conditions: time 14.0 day. It counts as functional, organism-based. For orientation: Xenograft models place foreign cells or tissue in a host animal.

Series [17] deals with NCI/ADR-RES. Nature of the series: In vivo resistance reversal activity in doxorubicin-resistant human MCF-7/ADR cells xenografted in BALB/c mouse model assessed as reduction in tumor volume at 10 mg/kg for every 2 days once injected through abdominal cavity for 14 days. The series is classed as functional, organism-based. The settings on record: time 14.0 day.
A short description of series [18]: Toxicity in BALB/c mouse xenografted with doxorubicin-resistant human MCF-7/ADR cells assessed as body weight change at 10 mg/kg for every 2 days once injected through abdominal cavity for 14 days. The series is classed as organism-based. As to conditions: in vivo, ip, 336 h, time 14 day.
Series [19] can be described thus: Toxicity in BALB/c mouse xenografted with doxorubicin-resistant human MCF-7/ADR cells assessed as heart morphological changes at 10 mg/kg for every 2 days once injected through abdominal cavity for 14 days by hematoxylin and eosin staining based analysis. The settings on record: in vivo, ip, 336 h, time 14 day. It counts as organism-based.
A short description of series [20]: Toxicity in BALB/c mouse xenografted with doxorubicin-resistant human MCF-7/ADR cells assessed as liver morphological changes at 10 mg/kg for every 2 days once injected through abdominal cavity for 14 days by hematoxylin and eosin staining based analysis. It counts as organism-based. As to conditions: in vivo, ip, 336 h, time 14 day.
The nature of series [21]: Toxicity in BALB/c mouse xenografted with doxorubicin-resistant human MCF-7/ADR cells assessed as spleen morphological changes at 10 mg/kg for every 2 days once injected through abdominal cavity for 14 days by hematoxylin and eosin staining based analysis. It counts as organism-based. The settings on record: in vivo, ip, 336 h, time 14 day.
Series [22] in a line: Toxicity in BALB/c mouse xenografted with doxorubicin-resistant human MCF-7/ADR cells assessed as lung morphological changes at 10 mg/kg for every 2 days once injected through abdominal cavity for 14 days by hematoxylin and eosin staining based analysis. The settings on record: in vivo, ip, 336 h, time 14 day. The series is classed as organism-based.
A short description of series [23]: Toxicity in BALB/c mouse xenografted with doxorubicin-resistant human MCF-7/ADR cells assessed as kidney morphological changes at 10 mg/kg for every 2 days once injected through abdominal cavity for 14 days by hematoxylin and eosin staining based analysis. It counts as organism-based. As to conditions: in vivo, ip, 336 h, time 14 day.

For orientation: inhibition means the drop in the measured response relative to a control, in per cent.

T1 sequence (P08183 whole entry): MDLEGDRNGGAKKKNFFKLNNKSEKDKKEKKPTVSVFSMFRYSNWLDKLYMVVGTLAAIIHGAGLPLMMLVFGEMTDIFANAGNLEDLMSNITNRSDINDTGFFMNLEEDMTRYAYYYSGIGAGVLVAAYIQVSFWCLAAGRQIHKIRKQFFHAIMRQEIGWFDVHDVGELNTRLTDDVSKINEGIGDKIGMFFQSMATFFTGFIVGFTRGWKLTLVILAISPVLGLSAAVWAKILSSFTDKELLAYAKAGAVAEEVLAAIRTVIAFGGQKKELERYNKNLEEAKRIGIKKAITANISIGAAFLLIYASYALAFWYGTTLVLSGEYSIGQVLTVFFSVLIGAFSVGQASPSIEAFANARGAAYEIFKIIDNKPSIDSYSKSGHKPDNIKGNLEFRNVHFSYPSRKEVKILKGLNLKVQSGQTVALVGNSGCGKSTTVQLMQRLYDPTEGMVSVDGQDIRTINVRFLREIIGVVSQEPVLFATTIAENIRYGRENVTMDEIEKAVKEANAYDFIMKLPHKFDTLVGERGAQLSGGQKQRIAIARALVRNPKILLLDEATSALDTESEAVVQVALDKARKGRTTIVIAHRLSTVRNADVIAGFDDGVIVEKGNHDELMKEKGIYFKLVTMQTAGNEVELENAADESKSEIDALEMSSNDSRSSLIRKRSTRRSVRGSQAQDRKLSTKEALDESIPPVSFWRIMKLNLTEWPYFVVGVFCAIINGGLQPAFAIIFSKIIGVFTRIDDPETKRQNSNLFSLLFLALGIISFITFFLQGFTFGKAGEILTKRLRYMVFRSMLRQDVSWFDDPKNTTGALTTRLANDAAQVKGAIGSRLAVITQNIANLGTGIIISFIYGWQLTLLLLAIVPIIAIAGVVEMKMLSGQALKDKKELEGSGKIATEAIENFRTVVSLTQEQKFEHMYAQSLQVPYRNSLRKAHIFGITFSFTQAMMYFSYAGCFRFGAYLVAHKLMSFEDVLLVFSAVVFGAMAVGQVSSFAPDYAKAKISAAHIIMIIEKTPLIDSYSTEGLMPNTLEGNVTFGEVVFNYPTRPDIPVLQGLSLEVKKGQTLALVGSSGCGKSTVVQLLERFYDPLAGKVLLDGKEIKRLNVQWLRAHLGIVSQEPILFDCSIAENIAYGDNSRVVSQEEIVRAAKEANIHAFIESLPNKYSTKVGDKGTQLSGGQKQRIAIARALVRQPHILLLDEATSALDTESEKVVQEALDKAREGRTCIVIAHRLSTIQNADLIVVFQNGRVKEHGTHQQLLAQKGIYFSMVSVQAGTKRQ

As for `COc1cc2c(cc1OC)CN(C(=O)c1cc3cc(-c4ccc(NC(=O)c5ccc(Cl)cc5)cc4)ccc3[nH]1)CC2`, the “fold change (FC)” value in [1] is recorded as 6011. The inhibition at 5 µM was 21.7% in [2] and 25% in [3]. For the same compound, the “inhibition (INH)” value in series [4] was “Dose-Dependent Effect”. Moreover, the result in [5], in series [7], in [8], in [9], in [10] and in series [11] was inactive. Besides, the result in series [12], in series [13], in series [16] and in series [17] was inactive. Moreover, the Activity entry in series [6] was “Active”; in series [18], “Non-Toxic”; in series [19], “Non-Toxic”; in [20], “Non-Toxic”; in series [21], “Non-Toxic”; in series [22], “Non-Toxic”. In addition, the Activity entry in series [23] was “Non-Toxic”. Also, the result in series [14] and in series [15] was Active.

As to `COc1cc2c(cc1OC)CN(CCc1ccc(NC(=O)c3cc(OC)c(OC)cc3NC(=O)c3cnc4ccccc4c3)cc1)CC2`, the “fold change (FC)” value in series [1] was 283.2. Also, the inhibition at 5 µM in series [2] stood at 42.8%; in series [3] it was 48.9%.

Turning to `COc1cc2c(cc1OC)CN(C(=O)c1cc3cc(-c4ccc(NC(=O)c5ccc(Cl)cc5)cc4)ccc3n1Cc1ccc(C)cc1)CC2`, the “fold change (FC)” value in [1] worked out at 36.6. The inhibition at 5 µM came out at 3.7% in series [2] and 2.5% in [3].

As to `COc1cc2c(cc1OC)CN(C(=O)c1cc3cc(-c4ccc(NC(=O)c5ccc(OC(C)(C)C)cc5)cc4)ccc3[nH]1)CC2`, the “fold change (FC)” value in series [1] was 96.6. Further, the inhibition at 5 µM in [2] was found to be 15.9%; in [3], 8.8%.

Take `COc1cc2c(cc1OC)CN(C(=O)c1cc3cc(-c4ccc(NC(=O)c5cccc(F)c5)cc4)ccc3[nH]1)CC2`: the “fold change (FC)” value in [1] amounted to 1021.3. The inhibition at 5 µM stood at 31.5% in series [2] and 34.1% in series [3].

As for `COc1cc2c(cc1OC)CN(C(=O)c1cc3cc(-c4ccc(NC(=O)c5ccccc5Cl)cc4)ccc3[nH]1)CC2`, the “fold change (FC)” value in series [1] stood at 241.9. Further, the inhibition at 5 µM amounted to 12.7% in series [2] and 12.4% in series [3].
